Here are results for three compounds from article PMC4774911, “Biochemical Screening of Five Protein Kinases from Plasmodium falciparum against 14,000 Cell-Active Compounds” (PLoS ONE, 2016).

Experiment [1] deals with P. falciparum 3D7 cells. Conditions: cited from earlier work.
Experiment [2] concerns HepG2 cells. Conditions: cited from earlier work.
Experiment [3] has as its target T1, STK11 (Homo sapiens, UniProt Q15831).
T1 sequence (Q15831 1-433): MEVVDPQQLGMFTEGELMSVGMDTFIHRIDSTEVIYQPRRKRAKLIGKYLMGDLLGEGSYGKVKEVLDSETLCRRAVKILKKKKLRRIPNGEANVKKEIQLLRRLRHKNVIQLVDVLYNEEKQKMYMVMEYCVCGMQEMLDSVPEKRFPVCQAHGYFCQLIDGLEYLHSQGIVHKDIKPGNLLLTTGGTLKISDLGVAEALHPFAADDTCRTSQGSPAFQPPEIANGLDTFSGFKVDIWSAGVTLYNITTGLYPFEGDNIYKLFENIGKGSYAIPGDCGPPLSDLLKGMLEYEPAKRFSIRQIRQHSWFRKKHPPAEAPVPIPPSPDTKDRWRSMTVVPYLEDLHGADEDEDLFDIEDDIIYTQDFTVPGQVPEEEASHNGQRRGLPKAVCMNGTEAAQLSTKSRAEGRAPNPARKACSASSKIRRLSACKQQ
In words: biochemical. Details: endogenous in cells; host or cells: K562 cell extract; species or system K562 (extract); replicate k of n = 2 (each experiment ID is one independent experiment; two experiment IDs per compound). Conditions: read-out: KDapp.

Experiment [4] deals with PAK4 (Homo sapiens, UniProt O96013). Description: biochemical. Set-up: endogenous in cells; host or cells: K562 cell extract; species or system K562 (extract); replicate k of n = 2 (each experiment ID is one independent experiment; two experiment IDs per compound). Conditions: read-out: KDapp.
Experiment [5] has as its target CIT (Homo sapiens, UniProt O14578). In words: biochemical. Set-up: endogenous in cells; host or cells: K562 cell extract; species or system K562 (extract); replicate k of n = 2 (each experiment ID is one independent experiment; two experiment IDs per compound). Conditions: read-out: KDapp.
Experiment [6] addresses CSNK1A1 (Homo sapiens, UniProt P48729). In words: biochemical. Set-up: endogenous in cells; host or cells: K562 cell extract; species or system K562 (extract); replicate k of n = 2 (each experiment ID is one independent experiment; two experiment IDs per compound). Conditions: read-out: KDapp.
For experiment [7], the target named is PIP5K3 (Homo sapiens, UniProt Q9Y2I7). In words: biochemical. Set-up: endogenous in cells; host or cells: K562 cell extract; species or system K562 (extract); replicate k of n = 2 (each experiment ID is one independent experiment; two experiment IDs per compound). Conditions: read-out: KDapp.
For experiment [8], the target named is ABL2 (Homo sapiens, UniProt P42684). In words: biochemical. Details: endogenous in cells; host or cells: K562 cell extract; species or system K562 (extract); replicate k of n = 2 (each experiment ID is one independent experiment; two experiment IDs per compound). Conditions: read-out: KDapp.
Experiment [9] addresses DDR1 (Homo sapiens, UniProt Q08345). In words: biochemical. Set-up: endogenous in cells; host or cells: K562 cell extract; species or system K562 (extract); replicate k of n = 2 (each experiment ID is one independent experiment; two experiment IDs per compound). Conditions: read-out: KDapp.
Experiment [10] relates to human kinases in K562 cell extract. In words: Kinobead competition assay, kinome-wide summary. Format: binding. Conditions: for Human kinases with apparent pKd ≥ 4.7 (N = 2) / Human kinases with apparent pKd ≥ 6 (N = 2): K562 extract, number of kinases, 20 μM-0.03 μM compound. As for the experimental part:
Kinobeads were prepared as described.

The target in experiment [11] is T2, MAP3K3 (Homo sapiens, UniProt Q99759).
T2 sequence (Q99759 1-626): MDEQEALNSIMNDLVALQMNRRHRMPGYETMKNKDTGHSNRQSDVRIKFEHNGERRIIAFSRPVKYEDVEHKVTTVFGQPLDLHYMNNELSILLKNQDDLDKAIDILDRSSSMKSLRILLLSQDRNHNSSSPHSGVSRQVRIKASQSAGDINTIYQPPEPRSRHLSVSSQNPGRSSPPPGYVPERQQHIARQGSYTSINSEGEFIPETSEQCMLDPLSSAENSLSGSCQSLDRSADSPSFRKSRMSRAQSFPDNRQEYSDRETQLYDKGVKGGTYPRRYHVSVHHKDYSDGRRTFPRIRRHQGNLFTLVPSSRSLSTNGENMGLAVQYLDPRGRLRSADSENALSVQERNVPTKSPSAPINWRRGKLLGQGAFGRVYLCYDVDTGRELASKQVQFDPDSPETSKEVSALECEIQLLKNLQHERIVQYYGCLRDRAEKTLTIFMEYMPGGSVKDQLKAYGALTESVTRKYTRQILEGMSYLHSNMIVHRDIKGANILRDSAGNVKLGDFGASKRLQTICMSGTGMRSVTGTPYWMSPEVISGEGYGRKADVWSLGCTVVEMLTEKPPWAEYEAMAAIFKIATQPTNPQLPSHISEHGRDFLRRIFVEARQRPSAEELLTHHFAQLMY
Description: biochemical.

Where [12] appears, read: 3D7, downloaded from ChEMBL, ref F.J. Gamo et al., Nature 2010.
Where [13] appears, read: P. falciparum 3D7, downloaded from ChEMBL ref F.J. Gamo et al., Nature 2010.

Where “and” joins values, the source holds several entries; their conditions need not be identical. Equal values may be shown once. Read-outs that look alike come from different tables or passages of the source.

Chain of PIP5K3 (Q9Y2I7 whole entry): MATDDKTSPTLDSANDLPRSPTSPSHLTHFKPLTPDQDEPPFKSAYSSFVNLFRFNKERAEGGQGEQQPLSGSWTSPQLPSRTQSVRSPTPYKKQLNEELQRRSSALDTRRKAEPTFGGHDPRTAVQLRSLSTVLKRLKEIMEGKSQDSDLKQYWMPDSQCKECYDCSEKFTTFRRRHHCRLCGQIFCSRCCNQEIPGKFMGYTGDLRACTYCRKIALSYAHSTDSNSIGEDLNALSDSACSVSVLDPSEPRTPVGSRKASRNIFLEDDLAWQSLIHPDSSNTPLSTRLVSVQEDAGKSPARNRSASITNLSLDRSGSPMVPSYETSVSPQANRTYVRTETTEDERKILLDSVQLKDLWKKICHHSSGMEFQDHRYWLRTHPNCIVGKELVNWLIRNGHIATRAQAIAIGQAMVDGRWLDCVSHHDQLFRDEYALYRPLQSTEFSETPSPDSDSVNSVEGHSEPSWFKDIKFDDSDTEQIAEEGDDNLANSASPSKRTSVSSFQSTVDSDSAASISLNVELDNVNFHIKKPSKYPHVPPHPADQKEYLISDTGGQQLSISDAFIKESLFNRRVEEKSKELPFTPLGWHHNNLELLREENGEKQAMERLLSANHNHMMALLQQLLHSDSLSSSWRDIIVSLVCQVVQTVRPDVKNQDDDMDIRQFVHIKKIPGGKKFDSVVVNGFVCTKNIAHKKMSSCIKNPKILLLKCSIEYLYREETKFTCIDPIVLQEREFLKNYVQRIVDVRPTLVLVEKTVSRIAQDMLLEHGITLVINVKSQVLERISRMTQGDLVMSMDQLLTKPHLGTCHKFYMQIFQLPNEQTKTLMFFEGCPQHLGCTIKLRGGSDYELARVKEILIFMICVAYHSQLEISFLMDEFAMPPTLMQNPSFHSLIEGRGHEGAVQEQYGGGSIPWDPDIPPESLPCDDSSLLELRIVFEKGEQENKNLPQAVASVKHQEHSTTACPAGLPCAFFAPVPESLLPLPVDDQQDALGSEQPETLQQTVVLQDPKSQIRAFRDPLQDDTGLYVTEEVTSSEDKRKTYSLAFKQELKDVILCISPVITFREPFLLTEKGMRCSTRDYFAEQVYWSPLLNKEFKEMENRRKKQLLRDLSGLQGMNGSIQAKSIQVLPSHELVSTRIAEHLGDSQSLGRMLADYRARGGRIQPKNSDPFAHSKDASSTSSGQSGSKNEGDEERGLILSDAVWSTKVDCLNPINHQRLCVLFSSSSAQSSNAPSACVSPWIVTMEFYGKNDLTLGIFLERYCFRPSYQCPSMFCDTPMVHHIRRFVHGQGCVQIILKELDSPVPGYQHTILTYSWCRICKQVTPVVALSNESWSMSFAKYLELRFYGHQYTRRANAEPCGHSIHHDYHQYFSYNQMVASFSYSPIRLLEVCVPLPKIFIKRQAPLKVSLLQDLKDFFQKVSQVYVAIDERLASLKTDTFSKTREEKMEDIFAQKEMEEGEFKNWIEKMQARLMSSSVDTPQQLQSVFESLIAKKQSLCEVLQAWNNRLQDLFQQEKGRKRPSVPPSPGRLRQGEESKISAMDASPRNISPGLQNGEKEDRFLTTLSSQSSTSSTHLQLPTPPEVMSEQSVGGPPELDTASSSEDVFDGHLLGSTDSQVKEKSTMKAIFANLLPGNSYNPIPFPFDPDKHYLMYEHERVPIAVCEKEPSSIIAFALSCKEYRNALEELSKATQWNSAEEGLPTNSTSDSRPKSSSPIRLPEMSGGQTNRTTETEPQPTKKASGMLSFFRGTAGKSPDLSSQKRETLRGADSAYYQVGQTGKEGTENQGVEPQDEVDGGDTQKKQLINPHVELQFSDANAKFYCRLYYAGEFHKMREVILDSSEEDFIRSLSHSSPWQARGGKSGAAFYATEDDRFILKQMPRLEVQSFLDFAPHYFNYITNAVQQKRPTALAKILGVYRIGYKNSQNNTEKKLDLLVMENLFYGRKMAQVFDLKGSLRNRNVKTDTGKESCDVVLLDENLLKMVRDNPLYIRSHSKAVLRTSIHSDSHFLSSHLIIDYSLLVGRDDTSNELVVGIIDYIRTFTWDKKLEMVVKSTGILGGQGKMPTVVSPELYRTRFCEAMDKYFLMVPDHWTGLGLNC
Chain of ABL2 (P42684 whole entry): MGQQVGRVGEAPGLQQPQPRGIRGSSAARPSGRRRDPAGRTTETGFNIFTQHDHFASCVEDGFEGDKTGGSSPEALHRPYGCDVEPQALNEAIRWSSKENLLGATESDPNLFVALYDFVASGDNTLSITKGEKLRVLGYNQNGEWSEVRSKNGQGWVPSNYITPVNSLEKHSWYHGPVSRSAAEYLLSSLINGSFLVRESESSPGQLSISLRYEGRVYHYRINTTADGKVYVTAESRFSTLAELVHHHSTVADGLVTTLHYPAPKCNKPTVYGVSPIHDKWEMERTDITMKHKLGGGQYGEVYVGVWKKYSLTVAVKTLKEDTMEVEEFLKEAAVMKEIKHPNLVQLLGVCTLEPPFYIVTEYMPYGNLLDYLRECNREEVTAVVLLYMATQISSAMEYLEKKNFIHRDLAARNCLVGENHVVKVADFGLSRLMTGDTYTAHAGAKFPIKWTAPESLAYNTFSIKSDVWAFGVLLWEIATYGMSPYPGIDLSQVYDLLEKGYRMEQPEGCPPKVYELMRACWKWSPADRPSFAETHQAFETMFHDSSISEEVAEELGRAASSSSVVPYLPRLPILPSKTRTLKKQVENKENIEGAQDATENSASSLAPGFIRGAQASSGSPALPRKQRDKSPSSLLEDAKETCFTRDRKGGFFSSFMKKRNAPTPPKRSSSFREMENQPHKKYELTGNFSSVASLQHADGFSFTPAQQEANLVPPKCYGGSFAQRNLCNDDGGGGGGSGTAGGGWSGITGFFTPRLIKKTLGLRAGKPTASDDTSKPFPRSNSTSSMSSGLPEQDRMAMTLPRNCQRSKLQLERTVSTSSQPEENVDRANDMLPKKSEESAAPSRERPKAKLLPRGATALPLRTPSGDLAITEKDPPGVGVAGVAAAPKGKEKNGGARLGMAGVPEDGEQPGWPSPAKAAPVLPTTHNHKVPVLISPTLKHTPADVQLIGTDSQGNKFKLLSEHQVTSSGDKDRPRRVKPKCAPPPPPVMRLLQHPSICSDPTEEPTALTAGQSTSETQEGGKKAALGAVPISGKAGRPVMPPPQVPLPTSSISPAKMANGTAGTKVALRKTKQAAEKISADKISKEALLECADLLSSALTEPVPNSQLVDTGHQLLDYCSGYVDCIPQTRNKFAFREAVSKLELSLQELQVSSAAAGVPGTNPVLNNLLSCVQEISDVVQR
Chain of DDR1 (Q08345 whole entry): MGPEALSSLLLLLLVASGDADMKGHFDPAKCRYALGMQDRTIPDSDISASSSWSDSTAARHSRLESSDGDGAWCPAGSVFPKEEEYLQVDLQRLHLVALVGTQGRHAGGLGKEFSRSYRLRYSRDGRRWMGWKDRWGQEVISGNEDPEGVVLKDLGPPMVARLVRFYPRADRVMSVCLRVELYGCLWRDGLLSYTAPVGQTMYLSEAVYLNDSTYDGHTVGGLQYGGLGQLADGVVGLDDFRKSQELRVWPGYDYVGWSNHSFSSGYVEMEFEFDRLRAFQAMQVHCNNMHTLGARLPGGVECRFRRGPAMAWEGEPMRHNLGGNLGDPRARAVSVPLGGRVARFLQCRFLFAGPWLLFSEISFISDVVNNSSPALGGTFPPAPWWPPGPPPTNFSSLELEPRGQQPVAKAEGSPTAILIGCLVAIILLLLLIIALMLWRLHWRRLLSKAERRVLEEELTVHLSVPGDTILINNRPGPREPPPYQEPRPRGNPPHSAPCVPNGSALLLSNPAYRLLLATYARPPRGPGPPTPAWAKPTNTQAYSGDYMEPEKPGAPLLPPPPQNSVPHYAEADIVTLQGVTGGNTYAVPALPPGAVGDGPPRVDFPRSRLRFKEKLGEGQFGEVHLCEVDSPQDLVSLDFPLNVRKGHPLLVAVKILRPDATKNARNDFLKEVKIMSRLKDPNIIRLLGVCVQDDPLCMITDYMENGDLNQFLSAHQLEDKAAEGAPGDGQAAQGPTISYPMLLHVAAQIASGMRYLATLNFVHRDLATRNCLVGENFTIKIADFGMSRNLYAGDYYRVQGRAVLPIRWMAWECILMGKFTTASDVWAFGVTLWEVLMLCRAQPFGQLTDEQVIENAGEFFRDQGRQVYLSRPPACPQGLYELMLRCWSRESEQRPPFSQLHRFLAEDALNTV
Chain of PAK4 (O96013 whole entry): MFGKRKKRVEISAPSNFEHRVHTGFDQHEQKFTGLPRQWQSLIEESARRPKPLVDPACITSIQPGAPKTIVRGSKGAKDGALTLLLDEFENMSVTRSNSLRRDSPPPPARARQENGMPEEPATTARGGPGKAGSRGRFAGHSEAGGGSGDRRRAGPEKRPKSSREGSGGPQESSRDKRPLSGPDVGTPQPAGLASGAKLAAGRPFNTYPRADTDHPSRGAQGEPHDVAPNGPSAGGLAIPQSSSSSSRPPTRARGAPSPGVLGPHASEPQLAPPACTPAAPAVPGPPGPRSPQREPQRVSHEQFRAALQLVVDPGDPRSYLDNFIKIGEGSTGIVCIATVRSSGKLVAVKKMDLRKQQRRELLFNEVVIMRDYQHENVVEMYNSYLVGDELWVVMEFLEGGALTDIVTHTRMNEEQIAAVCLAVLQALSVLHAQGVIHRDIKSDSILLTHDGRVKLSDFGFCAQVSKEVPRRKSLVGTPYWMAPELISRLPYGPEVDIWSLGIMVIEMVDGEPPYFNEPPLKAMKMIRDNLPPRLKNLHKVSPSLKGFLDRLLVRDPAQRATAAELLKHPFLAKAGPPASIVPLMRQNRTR
Chain of CSNK1A1 (P48729 whole entry): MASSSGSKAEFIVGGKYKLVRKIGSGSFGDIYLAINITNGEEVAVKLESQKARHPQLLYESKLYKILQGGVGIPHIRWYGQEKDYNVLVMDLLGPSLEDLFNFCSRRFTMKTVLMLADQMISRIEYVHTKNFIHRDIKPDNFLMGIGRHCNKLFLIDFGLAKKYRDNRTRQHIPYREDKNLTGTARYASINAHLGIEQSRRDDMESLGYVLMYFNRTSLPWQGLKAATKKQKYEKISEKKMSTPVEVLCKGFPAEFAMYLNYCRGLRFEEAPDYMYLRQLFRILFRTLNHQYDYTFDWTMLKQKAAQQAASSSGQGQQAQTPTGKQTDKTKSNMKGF

As to `CN1CCN(c2ccc(Nc3ncc(C#N)c(Nc4ccccc4C(N)=O)n3)cc2)CC1.Cl` [TCMDC-134116], the PCT_IHB_3D7 in experiment [1] (setting [12]) was 92%. Also, in experiment [1] (setting [12]), the pXC50_3D7 is given as 7.405. Besides, in [2], the “Inhibition of HepG2 cell growth at 10 μM” value is given as 43%. For the same compound, in [2] (HepG2, downloaded from ChEMBL, ref F.J. Gamo et al., Nature 2010), the PCT_INHIB_HEPG2 was 43%. The Kd in experiment [3] was 0.894 µM; in experiment [4] it was 0.205 µM and 0.227 µM; in [5], 4.86 µM and 4.95 µM; in [6] it was 0.742 µM and 1.08 µM; in experiment [7], 0.681 µM and 0.785 µM; in experiment [8], 0.0898 µM and 0.0719 µM. Moreover, the Kd in experiment [9] is 0.326 µM and 0.266 µM. Besides, in experiment [10] (K562 extract kinobeads), the “Share of human kinases tested bound with high affinity (pKd ≥ 6)” value is listed as “two thirds”. Moreover, in experiment [10], the “Human kinases with apparent pKd ≥ 4.7 (N = 2)” value is on record as 126. For the same compound, the “Human kinases with apparent pKd ≥ 6 (N = 2)” value in experiment [10] is 96. Also, in [11], half-maximal inhibition (IC50) was put at 0.31 µM.
With `Cl.NCC1(c2nc(-c3ccc(Cl)c(O)c3)c(-c3ccncc3)[nH]2)CCCCC1` [TCMDC-141154], the PCT_IHB_3D7 in experiment [1] (setting [13]) is 98. Besides, the pXC50_3D7 in experiment [1] (setting [13]) is 6.128. The “Inhibition of HepG2 cell growth at 10 μM” value in experiment [2] was 48%. Moreover, the PCT_INHIB_HEPG2 in [2] (HepG2 cells, downloaded from ChEMBL ref F.J. Gamo et al., Nature 2010) is on record as 48. For the same compound, the Kd in experiment [3] is 1.25 µM; in [4], 4.91 µM; in experiment [5], 0.137 µM and 0.239 µM; in [6], 0.224 µM and 0.255 µM; in experiment [7], 0.524 µM; in experiment [8] it was 0.22 µM and 0.18 µM. For the same compound, the Kd in experiment [9] worked out at 0.977 µM. The “Human kinases with apparent pKd ≥ 4.7 (N = 2)” value in [10] is 47. For the same compound, the “Human kinases with apparent pKd ≥ 6 (N = 2)” value in experiment [10] was determined as 26.
Turning to `CN(C)CC(O)COc1ccc(Nc2ncc([N+](=O)[O-])c(Nc3ccccc3O)n2)cc1.O=C(O)C(F)(F)F` (stereo not drawn) [TCMDC-141399], in experiment [1] (P. falciparum 3D7, ref ChEMBL), the PCT_IHB_3D7 is reported as 100. Besides, the pXC50_3D7 in [1] (P. falciparum 3D7, ref ChEMBL) is listed as 6.118. The “Inhibition of HepG2 cell growth at 10 μM” value in experiment [2] was 47%. The PCT_INHIB_HEPG2 in experiment [2] (HepG2 cells, ref ChEMBL) is given as 47. Further, the Kd in experiment [3] was 3.94 µM; in experiment [4] it was 4.85 µM and 3.67 µM; in [5], 3.75 µM; in experiment [6], 7.65 µM; in [7], 3.93 µM and 2.77 µM; in experiment [8], 1.89 µM. Moreover, in experiment [9], the Kd was 5.97 µM. The “Human kinases with apparent pKd ≥ 4.7 (N = 2)” value in [10] amounted to 63. Further, in [10], the “Human kinases with apparent pKd ≥ 6 (N = 2)” value is on record as 24. For the same compound, the concentration for half-maximal inhibition (IC50) in experiment [11] was 6 µM and > 20 µM.

One may read the IC50 as the concentration at which inhibition is half-maximal. Low values mean greater potency in that assay, high ones weaker potency in that assay.
